# Assay results published in US20230103791A1 (GLAXOSMITHKLINE INTELLECTUAL PROPERTY DEVELOPMENT LIMITED, priority 2019, published 2023).
# Biological target: T1, human Nav1.8 (Homo sapiens, UniProt Q9Y5Y9)
# T1 construct: expressed in transfected cells; host or cells: HEK293 (HEK293-Nav1.8)
# Experiment: Nav1.8 sodium channels assay, QPatch 48 HTX electrophysiology in HEK293-Nav1.8 cells
# Format: cell-based
# Settings: at least one set of experimental runs; read-out: average pIC50 value against Nav1.8 (converted)
# In short: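 IC50 came from 6-8 point curves of P2 current amplitude, normalized to baseline and a positive reference, and corrected for run-down using vehicle-only wells. Automated patch clamp used HEK293-Nav1.8 (with Navβ1 and TREK1) at pH 7.4 outside and CsF-based solution inside. An 8 s inactivating step at −46 mV preceded the 0 mV test pulse, repeated at 0.07 Hz.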
# T1 sequence (Q9Y5Y9 whole entry): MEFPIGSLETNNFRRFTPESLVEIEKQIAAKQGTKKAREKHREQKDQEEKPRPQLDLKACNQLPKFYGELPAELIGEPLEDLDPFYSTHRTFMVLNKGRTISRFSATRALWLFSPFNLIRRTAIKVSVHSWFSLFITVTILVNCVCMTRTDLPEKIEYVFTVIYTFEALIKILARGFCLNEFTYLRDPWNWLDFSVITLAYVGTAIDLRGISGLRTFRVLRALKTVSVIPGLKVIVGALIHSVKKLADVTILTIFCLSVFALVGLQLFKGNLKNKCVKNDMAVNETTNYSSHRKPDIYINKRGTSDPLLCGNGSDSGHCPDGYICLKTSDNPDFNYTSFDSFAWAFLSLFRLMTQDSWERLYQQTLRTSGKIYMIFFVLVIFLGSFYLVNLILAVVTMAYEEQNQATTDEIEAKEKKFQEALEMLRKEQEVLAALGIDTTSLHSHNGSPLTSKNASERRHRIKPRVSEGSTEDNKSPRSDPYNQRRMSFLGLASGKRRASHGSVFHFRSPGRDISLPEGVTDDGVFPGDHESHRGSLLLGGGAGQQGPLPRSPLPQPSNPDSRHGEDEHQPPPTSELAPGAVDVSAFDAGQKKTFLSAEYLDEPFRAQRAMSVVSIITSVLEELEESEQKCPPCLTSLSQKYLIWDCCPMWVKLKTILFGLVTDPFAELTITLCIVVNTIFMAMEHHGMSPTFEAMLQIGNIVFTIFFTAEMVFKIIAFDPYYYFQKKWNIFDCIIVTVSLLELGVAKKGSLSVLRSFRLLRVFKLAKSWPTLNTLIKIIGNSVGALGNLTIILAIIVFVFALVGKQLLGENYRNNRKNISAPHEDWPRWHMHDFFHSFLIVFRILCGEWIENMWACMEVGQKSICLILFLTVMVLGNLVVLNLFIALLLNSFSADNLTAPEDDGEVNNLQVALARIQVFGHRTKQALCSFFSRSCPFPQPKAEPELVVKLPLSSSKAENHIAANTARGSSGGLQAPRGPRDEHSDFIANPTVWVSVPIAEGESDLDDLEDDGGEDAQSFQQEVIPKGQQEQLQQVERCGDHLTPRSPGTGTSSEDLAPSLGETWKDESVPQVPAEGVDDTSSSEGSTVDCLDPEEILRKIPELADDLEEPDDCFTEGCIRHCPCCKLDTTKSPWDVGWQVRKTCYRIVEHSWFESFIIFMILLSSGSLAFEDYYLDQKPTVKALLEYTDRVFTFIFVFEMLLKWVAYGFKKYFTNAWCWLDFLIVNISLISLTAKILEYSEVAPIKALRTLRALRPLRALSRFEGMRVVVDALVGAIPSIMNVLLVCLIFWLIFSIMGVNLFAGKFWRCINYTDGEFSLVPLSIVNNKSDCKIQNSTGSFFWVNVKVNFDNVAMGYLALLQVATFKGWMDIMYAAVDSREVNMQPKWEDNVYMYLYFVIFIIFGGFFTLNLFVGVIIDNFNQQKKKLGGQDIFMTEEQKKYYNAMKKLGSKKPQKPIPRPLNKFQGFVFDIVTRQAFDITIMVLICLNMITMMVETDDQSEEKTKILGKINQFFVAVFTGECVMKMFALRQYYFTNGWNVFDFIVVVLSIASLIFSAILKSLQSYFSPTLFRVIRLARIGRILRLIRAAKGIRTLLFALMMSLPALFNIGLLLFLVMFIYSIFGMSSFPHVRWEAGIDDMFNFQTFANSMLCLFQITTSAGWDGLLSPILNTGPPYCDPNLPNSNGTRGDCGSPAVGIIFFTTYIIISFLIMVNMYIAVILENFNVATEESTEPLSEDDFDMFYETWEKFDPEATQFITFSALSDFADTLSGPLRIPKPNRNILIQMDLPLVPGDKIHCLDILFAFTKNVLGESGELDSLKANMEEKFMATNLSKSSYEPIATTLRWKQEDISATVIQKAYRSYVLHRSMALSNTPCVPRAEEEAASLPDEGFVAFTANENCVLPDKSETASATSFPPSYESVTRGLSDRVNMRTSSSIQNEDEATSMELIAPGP
# T1 sequence (Q07699 19-218 partner): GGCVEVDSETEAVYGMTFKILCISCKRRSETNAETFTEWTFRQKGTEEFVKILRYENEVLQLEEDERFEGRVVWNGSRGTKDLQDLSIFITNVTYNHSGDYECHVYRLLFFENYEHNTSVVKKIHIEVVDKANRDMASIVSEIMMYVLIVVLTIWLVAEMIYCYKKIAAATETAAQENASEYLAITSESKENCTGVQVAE
row,Structure (SMILES),IC50 [nM]
1,"Cc1cc(F)ccc1N1CN(c2c(Cl)cc(=O)[nH]c2C)C(=O)c2cc(Cl)ccc21 [Example 232, 6-chloro-3-(4-chloro-2-methyl-6-oxo-1,6-dihydropyridin-3-yl)-1-(4-fluoro-2-methylphenyl)-2,3-dihydroquinazolin-4(1H)-one]",794 to 7940
2,"Cc1cc(F)ccc1N1CN(c2ccc(=O)[nH]c2C)C(=O)c2cc(C#N)c(Cl)cc21 [Example 233, 7-chloro-1-(4-fluoro-2-methylphenyl)-3-(2-methyl-6-oxo-1,6-dihydropyridin-3-yl)-4-oxo-1,2,3,4-tetra-hydroquinazoline-6-carbonitrile]",≤ 100
3,"Cc1cc(F)ccc1N1CN(c2ccc(=O)[nH]c2C)C(=O)c2c1ccc(Cl)c2C [Example 234, 6-chloro-1-(4-fluoro-2-methylphenyl)-5-methyl-3-(2-methyl-6-oxo-1,6-dihydropyridin-3-yl)-2,3-dihydroquinazolin-4(1H)-one]",≤ 100
4,"Cc1[nH]c(=O)ccc1N1CN(c2cc(F)cc(F)c2C)c2ccc(C(F)(F)F)cc2C1=O [Example 235, 1-(3,5-difluoro-2-methylphenyl)-3-(2-methyl-6-oxo-1,6-dihydropyridin-3-yl)-6-(trifluoromethyl)-2,3-dihydroquinazolin-4(1H)-one]",794 to 7940
5,"COc1cccc2c1C(=O)N(c1ccc(=O)[nH]c1C)CN2c1ccc(F)cc1C(C)C [Example 236, 1-(4-fluoro-2-isopropylphenyl)-5-methoxy-3-(2-methyl-6-oxo-1,6-dihydropyridin-3-yl)-2,3-dihydroquinazolin-4(1H)-one]",794 to 7940
6,"Cc1[nH]c(=O)ccc1N1CN(C23CC(C2)C3)c2cc(C(F)(F)F)ccc2C1=O [Example 237, 1-(bicyclo[1.1.1]pentan-1-yl)-3-(2-methyl-6-oxo-1,6-dihydropyridin-3-yl)-7-(trifluoromethyl)-2,3-dihydroquinazolin-4(1H)-one]",794 to 7940
7,"Cc1cc(F)ccc1N1CN(c2cc[nH]c(=O)c2C)C(=O)c2cc(C(F)(F)F)ccc21 [Example 238, 1-(4-fluoro-2-methylphenyl)-3-(3-methyl-2-oxo-1,2-dihydropyridin-4-yl)-6-(trifluoromethyl)-2,3-dihydroquinazolin-4(1H)-one]",794 to 7940
8,"Cc1cc(F)ccc1N1CN(c2ccc(=O)[nH]c2C)Cc2cc(C(F)(F)F)ccc21 [Example 239, 5-(1-(4-fluoro-2-methylphenyl)-6-(trifluoromethyl)-1,4-dihydroquinazolin-3(2H)-yl)-6-methylpyridin-2(1H)-one]",126 to 631
9,"Cc1[nH]c(=O)ccc1N1CN(c2ccccc2CC(F)(F)F)c2ccc(C(F)(F)F)cc2C1=O [Example 240, 3-(2-Methyl-6-oxo-1,6-dihydropyridin-3-yl)-1-(2-(2,2,2-trifluoroethyl)phenyl)-6-(trifluoromethyl)-2,3-dihydroquinazolin-4(1H)-one]",≤ 100
10,"Cc1cc(F)ccc1N1CN(c2ccc(=O)[nH]c2C)C(=O)c2ccc(OC(F)F)nc21 [Example 241, 7-(difluoromethoxy)-1-(4-fluoro-2-methylphenyl)-3-(2-methyl-6-oxo-1,6-dihydropyridin-3-yl)-2,3-dihydropyrido[2,3-d]pyrimidin-4(1H)-one]",126 to 631
11,"Cc1cc(F)ccc1N1CN(c2ccc(=O)[nH]c2C)C(=O)c2cc(F)c(C#N)cc21 [Example 242, 6-fluoro-1-(4-fluoro-2-methylphenyl)-3-(2-methyl-6-oxo-1,6-dihydropyridin-3-yl)-4-oxo-1,2,3,4-tetrahydroquin-azoline-7-carbonitrile]",≤ 100
12,"CCc1cc(F)ccc1N1CN(c2ccncc2C)C(=O)c2cc(Cl)c(C#N)cc21 [Example 243, 6-chloro-1-(2-ethyl-4-fluorophenyl)-3-(3-methylpyridin-4-yl)-4-oxo-1,2,3,4-tetrahydroquin-azoline-7-carbonitrile]",126 to 631
13,"Cc1c[n+]([O-])ccc1N1CN(c2ccc(F)cc2C)c2cc(C(F)F)c(Cl)cc2C1=O [Example 244, 4-(6-Chloro-7-(difluoromethyl)-1-(4-fluoro-2-methylphenyl)-4-oxo-1,4-dihydroquinazolin-3(2H)-yl)-3-methylpyridine 1-oxide]",≤ 100
14,"CCc1cc(F)ccc1N1CN(c2cc[n+]([O-])cc2C)C(=O)c2cc(Cl)c(F)cc21 [Example 245, 4-(6-chloro-1-(2-ethyl-4-fluorophenyl)-7-fluoro-4-oxo-1,4-dihydroquinazolin-3(2H)-y1)-3-methylpyridine 1-oxide]",≤ 100
15,"Cc1c[n+]([O-])ccc1N1CN(c2ccc(OC(F)(F)F)cc2C)c2cc(F)c(Cl)cc2C1=O [Example 246, 4-(6-chloro-7-fluoro-1-(2-methyl-4-(trifluoromethoxy)phenyl)-4-oxo-1,4-dihydroquinazolin-3(2H)-yl)-3-methylpyridine 1-oxide]",≤ 100
16,"CCc1cc(F)ccc1N1CN(c2cc[n+]([O-])cc2C)C(=O)c2cc(Cl)c(C#N)cc21 [Example 247, 4-(6-chloro-7-cyano-1-(2-ethyl-4-fluorophenyl)-4-oxo-1,4-dihydroquinazolin-3(2H)-yl)-3-methylpyridine 1-oxide]",≤ 100

row,Structure (SMILES),IC50 [nM]
1,"Cc1cc(F)ccc1N1CN(c2ccc(C(N)=O)[n+]([O-])c2)C(=O)c2c1ccc(Cl)c2F [Example 248, 2-carbamoyl-5-(6-chloro-5-fluoro-1-(4-fluoro-2-methylphenyl)-4-oxo-1,4-dihydroquinazolin-3(2H)-yl)pyridine 1-oxide]",794 to 7940
2,"Cc1cc(F)ccc1N1CN(c2ccc[n+]([O-])c2)C(=O)c2cc(C(F)(F)F)ccc21 [Example 249, 3-(1-(4-fluoro-2-methylphenyl)-4-oxo-6-(trifluoromethyl)-1,4-dihydroquinazolin-3(2H)-yl)pyridine 1-oxide]",794 to 7940
3,"Cc1c[n+]([O-])ccc1N1CN(c2ccc(F)cc2C)c2ccc(C(F)(F)F)cc2C1=O [Example 254, 4-(1-(4-fluoro-2-methylphenyl)-4-oxo-6-(trifluoromethyl)-1,4-dihydroquinazolin-3(2H)-yl)-3-methylpyridine 1-oxide]",126 to 631
4,"Cc1cc(N2CN(c3ccc(F)cc3C)c3ccc(C(F)(F)F)cc3C2=O)c[n+]([O-])c1 [Example 255, 3-(1-(4-fluoro-2-methylphenyl)-4-oxo-6-(trifluoromethyl)-1,4-dihydroquinazolin-3(2H)-yl)-5-methylpyridine 1-oxide]",794 to 7940
5,"Cc1c[n+]([O-])ccc1N1CN(c2ccc(OC(F)(F)F)cc2C)c2ccc(C(F)(F)F)cc2C1=O [Example 256, 3-methyl-4-(1-(2-methyl-4-(trifluoromethoxy)phenyl)-4-oxo-6-(trifluoromethyl)-1,4-dihydroquinazolin-3(2H)-yl)pyridine 1-oxide]",≤ 100
6,"Cc1cc(F)ccc1N1CN(c2ccc(=O)[nH]c2N)C(=O)c2cc(C(F)(F)F)ccc21 [Example 257, 3-(2-Amino-6-oxo-1,6-dihydropyridin-3-yl)-1-(4-fluoro-2-methylphenyl)-6-(trifluoromethyl)-2,3-dihydroquinazolin-4(1H)-one]",≤ 100
7,"Cc1cc(F)ccc1N1CN(c2ccc(=O)[nH]c2C)C(=O)c2ccc(C3COC3)cc21 [Example 265, 1-(4-Fluoro-2-methylphenyl)-3-(2-methyl-6-oxo-1,6-dihydropyridin-3-yl)-7-(oxetan-3-yl)-2,3-dihydroquinazolin-4(1H)-one]",126 to 631
8,"Cc1cc(O)ccc1N1CN(c2ccc(F)cc2C)c2ccc(C(F)(F)F)cc2C1=O [Example 266, 1-(4-Fluoro-2-methylphenyl)-3-(4-hydroxy-2-methylphenyl)-6-(trifluoromethyl)-2,3-dihydroquinazolin-4(1H)-one]",794 to 7940
9,"Cc1cc(O)ccc1N1CN(c2ccc(F)cc2C)c2cc(C(F)(F)F)ccc2C1=O [Example 267, 1-(4-Fluoro-2-methylphenyl)-3-(4-hydroxy-2-methylphenyl)-7-(trifluoromethyl)-2,3-dihydroquinazolin-4(1H)-one]",794 to 7940
10,Cc1cc(F)ccc1N1CN(C2CCC(=O)NC2)C(=O)c2ccc(C(F)(F)F)cc21 (centres unmarked) [Example 268],126 to 631
11,"CC1=C(N2CN(c3ccc(F)cc3C)c3cc(C(F)(F)F)ccc3C2=O)CCC(=O)N1 [Example 269, 1-(4-fluoro-2-methylphenyl)-3-(2-methyl-6-oxo-1,4,5,6-tetrahydropyridin-3-yl)-7-(trifluoromethyl)-2,3-dihydroquinazolin-4(1H)-one]",≤ 100
12,"Cc1cc(F)ccc1N1CN(C2CNC(=O)NC2)C(=O)c2ccc(C(F)(F)F)cc21 [Example 270, 1-(4-fluoro-2-methylphenyl)-3-(2-oxohexahydro-pyrimidin-5-yl)-7-(trifluoromethyl)-2,3-dihydroquinazolin-4(1H)-one]",126 to 631
13,"CC1=C(N2CN(c3ccc(F)cc3C)c3cc(C(F)(F)F)ccc3C2=O)CNC(=O)N1 [Example 271, 1-(4-fluoro-2-methylphenyl)-3-(6-methyl-2-oxo-1,2,3,4-tetrahydro-pyrimidin-5-yl)-7-(trifluoromethyl)-2,3-dihydroquinazolin-4(1H)-one]",≤ 100
14,"Cc1cc(N)ncc1N1CN(c2ccc(F)cc2C)c2ccc(C(F)(F)F)cc2C1=O [Example 277, 3-(6-Amino-4-methylpyridin-3-yl)-1-(4-fluoro-2-methylphenyl)-6-(trifluoromethyl)-2,3-dihydroquinazolin-4(1H)-one]",126 to 631
15,"Cc1[nH]c(=O)ccc1N1CN([C@H]2CCCC[C@@H]2C)c2cc(C(F)(F)F)ccc2C1=O [Example 279, 3-(2-Methyl-6-oxo-1,6-dihydropyridin-3-yl)-1-((1S,2S)-2-methylcyclohexyl)-7-(trifluoromethyl)-2,3-dihydroquinazolin-4(1H)-one]",≤ 100
16,"Cc1[nH]c(=O)ccc1N1CN([C@@H]2CCCC[C@H]2C)c2cc(C(F)(F)F)ccc2C1=O [Example 280, 3-(2-Methyl-6-oxo-1,6-dihydropyridin-3-yl)-1-((1R,2R)-2-methylcyclohexyl)-7-(trifluoromethyl)-2,3-dihydroquinazolin-4(1H)-one]",126 to 631
